Consider 11 compounds from patent US6900216B2, “Dihydroimidazo[2,1-b]thiazole and dihydro-5h-thiazolo[3,2-A]pyrimidines as antidepressant agents” (Knoll GmbH, priority 2000, dated 2005).

The target in this assay is T1, 5-HT1A receptors (Rattus norvegicus, UniProt P19327).
T1 construct: Hippocampal tissue from the brains of male Sprague-Dawley rats; from tissue; host or cells: rat hippocampal membranes
T1 sequence (P19327 1-422): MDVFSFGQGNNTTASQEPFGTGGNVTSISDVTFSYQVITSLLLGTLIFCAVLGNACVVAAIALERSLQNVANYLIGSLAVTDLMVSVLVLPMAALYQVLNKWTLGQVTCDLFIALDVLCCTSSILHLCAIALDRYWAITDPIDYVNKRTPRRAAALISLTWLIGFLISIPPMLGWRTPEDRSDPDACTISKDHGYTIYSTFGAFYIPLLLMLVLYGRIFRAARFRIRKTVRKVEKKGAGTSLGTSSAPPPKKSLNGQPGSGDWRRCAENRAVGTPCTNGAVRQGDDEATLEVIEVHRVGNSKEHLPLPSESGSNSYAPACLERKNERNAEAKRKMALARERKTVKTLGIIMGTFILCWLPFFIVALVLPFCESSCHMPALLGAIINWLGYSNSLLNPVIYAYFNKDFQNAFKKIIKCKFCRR
As to the kind of experiment: 5-HT1A binding: inhibition of [3H]8-OH-DPAT binding to rat hippocampal membranes. Conditions: for inhibition at 1 µM: read-out: 5-HT1A % displacement at 10^−6 M; for Ki: [3H]8-OH-DPAT 1 nM, rat hippocampal membranes, fit to data from three experiments. Here is the method:
Hippocampal tissue from the brains of male Sprague-Dawley rats (Charles River; weight range 150-250 g) was homogenised in ice-cold 50 mM Tris-HCl buffer (pH 7.7 when measured at 25° C., 1:40 w/v) and centrifuged at 40,000 g at 4° C. for 10 minutes. The pellet was rehomogenised in the same buffer, incubated at 37° C. for 10 minutes and centrifuged at 40,000 g at 4° C. for 10 minutes. The final pellet was resuspended in 50 mM Tris-HCl buffer (pH 7.7) containing 4 mM CaCl2, 0.1% L-ascorbic acid and 10 μM pargyline hydrochloride (equivalent to 6.25 mg wet weight of tissue/ml) and used immediately in the binding assay.
Membranes (400 μl; equivalent to 2.5 mg wet weight of tissue/tube) were incubated with 50 μl of [^3H]8-hydroxy-2-(dipropylamino)tetralin ([^3H]8-OH-DPAT) at a single concentration of 1 nM and 50 μl of distilled water (total binding) or 50 μl of test compound (at a single concentration of 10^−6 M or at 10 concentrations ranging from 10^−11-10^−3 M) or 50 μl of 5-HT (10 μM, non-specific binding) at 25° C. for 30 minutes. The incubation was terminated by rapid filtration under vacuum through Skatron 11734 filters using a Skatron Cell Harvester. Filters were washed with ice-cold 50 mM Tris-HCl buffer, pH 7.7 (at 25° C., wash setting 9,9,0). The scored filter paper discs were punched out into vials, scintillation fluid added and radioactivity determined by liquid scintillation counting.
For each of these tests measuring the ability of compounds of Formula I to displace standard ligands from 5-HT1A receptors and 5-hydroxytryptamine (5-HT) and noradrenaline (NA) reuptake sites and muscarinic receptors in vitro, the percentage displacement of specific binding of tritiated ligand by 10^−6 M test compound was calculated in the following way.
Firstly, specific binding of tritiated ligand in the absence (A) and presence (B) of test compound was determined:
In the absence of compound: A(dpm)=Total binding (dpm)−Non-specific binding (dpm) In the presence of compound (10^−6 M): B(dpm)=Binding at 10^−6M (dpm)−Non-specific binding (dpm)
The specific binding of tritiated ligand in the presence (B) of compound was then converted to a percentage of specific binding of tritiated ligand in the absence (A) of compound: % Specific binding at 10^−6 M=B(dpm)/A(dpm)×100
The percentage displacement of specific binding of tritiated ligand by the test compound (10^−6 M) was then obtained by subtraction of the percentage specific binding in the presence of compound from the percentage specific binding in the absence of compound, which is taken as the maximum binding and so equals 100%:
% Displacement at 10^−6 M=100−% Specific binding at 10^−6 M.
In some cases, displacement curves were then produced for compounds which displaced ≧50% of specific binding of the tritiated ligand at 10^−6 M using a range of concentrations of the compound. The Ki was then calculated by simultaneous fitting using equations derived from the Feldman equations by robust non-linear regression to data from three experiments simultaneously (De Lean et al., 1978; Munson and Rodbard, 1980; Feldman, 1992). Munson P J and Rodbard D. Ligand: a versatile computerised approach for characterisation of ligand binding systems. Anal Biochem 1980; 107: 220. Feldman HA. Mathematical theory of complex ligand binding systems at equilibrium: some methods for parameter fitting. Anal Biochem 1992: 48, 317. De Lean A, Munson P J and Rodbard D. Simultaneous analysis of families of sigmoidal curves: application to bioassay, radioligand assay, and physiological dose-response curves. Am J Physiol 1978: 235 (2), E97-E102.
The results obtained in the above tests for 5-HT1A binding and 5-HT and NA uptake and muscarinic binding for the final products of Examples 1-39 hereinafter are given in Table 1 below. Kis are in nM. % Figures are for % displacement at 10^−6 M for a single determination.

Structures are written as SMILES.

`CC1=C(c2cccc3sc(C)cc23)N2CCN=C2S1.Cl` [Example 33, 2-methyl-3-(2-methylbenzo[b]thiophen-4-yl)-5,6-dihydroimidazo[2,1-b]thiazole hydrochloride]: the inhibition at 1 µM came out at 99%. The term Ki denotes a dissociation constant, usually derived from enzyme kinetics or from competition with a known ligand. Read a high Ki as a looser hold on the target. In turn, `CC(C)C1=C(c2ccc3sccc3c2)N2CCN=C2S1` [Example 29, 3-(benzo[b]thiophen-5-yl)-2-(1-methylethyl)-5,6-dihydroimidazo[2,1-b]-thiazole] returned a Ki of 83 nM. The same measure, in the same setting: the figure for `Br.C=CCC1=C(c2cccc3sccc23)N2CCN=C2S1` [Example 36, 2-allyl-3-(benzo[b]thiophen-4-yl)-5,6-dihydroimidazo[2,1-b]thiazole hydrobromide] is 40 nM. On to `Cl.Fc1cccc2sc(C3=CSC4=NCCN34)cc12` [Example 5, 3-(4-fluorobenzo[b]thiophen-2-yl)-5,6-dihydroimidazo[2,1-b]thiazole hydrochloride], for which the inhibition at 1 µM is 55%. `OCC1=C(c2ccc3sccc3c2)N2CCN=C2S1` [Example 28, [3-(benzo[b]thiophen-5-yl)-5,6-dihydroimidazo[2,1-b]-thiazol-2-yl]methanol] gave a Ki of 38.5 nM. In turn, `OCC1=C(c2cc3c(Cl)cccc3s2)N2CCN=C2S1` [Example 4, [3-(4-chlorobenzo[b]thiophen-2-yl)-5,6-dihydroimidazo[2,1-b]thiazol-2-yl]methanol] registered a Ki of 2.2 nM. Compared with the last compound, the Ki is about 18-fold lower.

Regarding `CCC1=C(c2cccc3sccc23)N2CCN=C2S1.O=C(O)/C=C/C(=O)O` [Example 25, 3-(benzo[b]thiophen-4-yl)-2-ethyl-5,6-dihydroimidazo[2,1-b]thiazole fumarate], the inhibition at 1 µM is 92%. Compound `Br.CC1=C(c2cc3ccccc3s2)N2CCN=C2S1` [Example 6, 3-(benzo[b]thiophen-2-yl)-2-methyl-5,6-dihydroimidazo[2,1-b]thiazole hydrobromide] came in with a Ki of 9.7 nM. In the case of `Br.CC1=C(c2cc3c(Cl)c(Cl)ccc3s2)N2CCN=C2S1` [Example 24, 3-(4,5-dichlorobenzo[b]thiophen-2-yl)-2-methyl-5,6-dihydroimidazo[2,1-b]-thiazole hydrobromide], the inhibition at 1 µM is 76%. Still for that read-out and setting: the figure for `Br.COc1cccc2cc(C3=C(C)SC4=NCCN43)sc12` [Example 26, 3-(7-methoxybenzo[b]thiophen-2-yl)-2-methyl-5,6-dihydroimidazo[2,1-b]thiazole hydrobromide] is 90%. Regarding `CSC1=C(c2cccc3sccc23)N2CCN=C2S1.Cl` [Example 22, 3-(benzo[b]thiophen-4-yl)-2-(methylthio)-5,6-dihydroimidazo[2,1-b]thiazole hydrochloride], the inhibition at 1 µM was 88%.
